One assay has as its target T1, IL-23R (Homo sapiens, UniProt Q5VWK5).
T1 construct: HEK293 cells containing IL-23R, IL-12Rβ1 and a firefly luciferase reporter gene driven by a STAT-inducible promoter (Promega); host or cells: HEK293
T1 sequence (Q5VWK5 24-629): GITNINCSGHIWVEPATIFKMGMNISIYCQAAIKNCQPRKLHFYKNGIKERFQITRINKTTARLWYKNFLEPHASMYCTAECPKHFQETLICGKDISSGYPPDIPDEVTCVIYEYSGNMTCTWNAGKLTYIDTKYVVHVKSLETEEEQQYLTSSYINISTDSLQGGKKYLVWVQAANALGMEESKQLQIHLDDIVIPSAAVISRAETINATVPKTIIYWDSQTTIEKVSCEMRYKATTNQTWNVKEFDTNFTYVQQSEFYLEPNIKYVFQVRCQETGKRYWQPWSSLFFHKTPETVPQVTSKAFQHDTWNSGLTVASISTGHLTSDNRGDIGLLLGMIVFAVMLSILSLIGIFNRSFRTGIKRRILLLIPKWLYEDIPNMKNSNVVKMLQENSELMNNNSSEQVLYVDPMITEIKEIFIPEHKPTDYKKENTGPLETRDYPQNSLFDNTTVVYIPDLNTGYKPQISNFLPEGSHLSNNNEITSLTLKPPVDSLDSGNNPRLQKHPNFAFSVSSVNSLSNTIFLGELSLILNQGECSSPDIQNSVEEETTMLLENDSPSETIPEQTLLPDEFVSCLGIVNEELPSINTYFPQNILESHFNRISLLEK
Briefly: IL23R Reporter Assay. The format is cell-based. As to conditions: HEK293 cells containing IL-23R, IL-12Rβ1 and STAT-inducible firefly luciferase reporter; 10 ng/mL IL-23 (EC90); 5 h. Put shortly:
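IC50 values were fitted with a 4-parameter Hill equation to luciferase signal, scaled between IL-23-only wells (0% inhibition) and 30 μM reference inhibitor (100%). The readout was a STAT-inducible reporter in IL-23R/IL-12Rβ1 HEK293 cells, stimulated with added 10 ng/mL IL-23 (EC90) for 5 h at 37° C and developed with BioGlo.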
(In general: A reporter such as luciferase makes a cellular process visible.)

Assay [1] concerns IL-23-stimulated phosphorylated STAT3 in peripheral blood mononuclear cells (PBMCs). Briefly: PBMC pSTAT3 Assay. The format is cell-based. The settings on record: PBMCs from healthy donors; 30 min preincubation with peptide; IL-23 5 ng/mL for 30 min; phospho-STAT3 by MSD. Put shortly:
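Phospho-STAT3 quantified by Meso Scale assay in lysates of PBMCs exposed to IL-23 (5 ng/mL, 30 min, 37 °C) after 30 min peptide pretreatment. Cells were cryopreserved donor PBMCs activated 4 days with anti-CD3 plus IL-1β (100 ng/mL) and starved ~4 h; IC50 reported.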

*1 amine or outer side, *2 acyl side, *3 side chain or, on linkers, in order; H or OH if unused. Where a SMILES comes first, the peptide text is derived from it. Bridges are numbered along the chain shown (N, C = ends). Side-chain parts run from the residue outwards. [ ]: non-standard residue; d: D form. The star is where a group is joined. ξ: configuration not given here. X30 = C[N+](C)(CCCC(=O)CCOCCOCCOCCOCCOCCOCCNC(=O)CC[C@H](NC(=O)CCCCCCCCCCCCCCCCC(=O)O)C(=O)O)CC(=O)*; X41 = C[N+](C)(CCCCC*)CCOCCOCCNC(=O)COCCOCCCC(=O)CC[C@H](CC(=O)CCCCCCCCCCCCCCCCC(=O)O)C(=O)O; X34 = O=C(O)CCCCCCCCCCCCCCCCC(=O)C[C@@H](CCC(=O)NCCOCCOCC(=O)NCCOCCOCCN*)C(=O)O; X4 = C[N+](C)(CCCCCCc1ccc(C[C@H](N[*:1])C(=O)[*:2])cc1)CCOCCOCCN[*:3]; Me3N+(CH2)2O(CH2)2O(CH2)2CO = C[N+](C)(C)CCOCCOCCC(=O)*; Trp(7-Me) = Cc1cccc2c(C[C@H](N)C(=O)O)c[nH]c12; C18 diacid = O=C(O)CCCCCCCCCCCCCCCCC(=O)*; γGlu = O=C(O)[C@H](CCC(=O)[*:2])N[*:1]; 2Nal = N[C@@H](Cc1ccc2ccccc2c1)C(=O)O; AEF = NCCOc1ccc(C[C@H](N)C(=O)O)cc1; 3Pal = N[C@@H](Cc1cccnc1)C(=O)O; Lys(Me) = CNCCCC[C@H](N)C(=O)O; Pen = CC(C)(S)[C@H](N)C(=O)O; ξ3Pal = NC(Cc1cccnc1)C(=O)O; Ac6c = NC1(C(=O)O)CCCCC1; Thp = NC1(C(=O)O)CCOCC1; Abu = CC[C@H](N)C(=O)O; X1 = C[N+](C)(C)CCCCC*; X31 = C=C(CN(C)*)N(C)C; AEEA = NCCOCCOCC(=O)O; Sar = CNCC(=O)O Bounds are passed on as bounds.

Usually IC50 stands for the concentration at which inhibition is half-maximal. The low end stands for inhibition by little substance, the high end for a need for much substance. As for `C=C(CN(C)C(=O)C(Cc1cccnc1)NC(=O)[C@H](CC(N)=O)NC(=O)[C@H](CCCCN(C)C(C)=O)NC(=O)C1(NC(=O)[C@H](Cc2ccc3ccccc3c2)NC(=O)[C@H](Cc2ccc(OCCNC(=O)C[N+](C)(C)CCCC(=O)CCOCCOCCOCCOCCOCCOCCNC(=O)CC[C@H](NC(=O)CCCCCCCCCCCCCCCCC(=O)O)C(=O)O)cc2)NC(=O)[C@H]2NC(=O)[C@H](CCCCN(C)C(C)=O)NC(=O)[C@H](Cc3c[nH]c4ccccc34)NC(=O)[C@H]([C@@H](C)O)NC(=O)[C@H](CC)NC(=O)[C@@H](N)C(C)(C)SSC2(C)C)CCCCC1)N(C)C` (stereo partly drawn) [compound 142, cPEG3aCO-Pen(3)-N(N(Me)2)-T-7MeW-K(NMeAc)-Pen(3)-AEF(SP6PEG6gEC18OH)-2Nal-THP-K(NMeAc)-N-3Pya-Sar-CON(Me)2] (H-[Pen][Abu]TW[Lys(Me)](Ac)[Pen][AEF](X30)[2Nal][Ac6c][Lys(Me)](Ac)N[ξ3Pal]-X31; disulfide 1-6), the IC50 against IL-23R was less than 0.05 µM; in assay [1] it was less than 0.0005 µM.
The matching figures for `CC(=O)N(C)CCCC[C@@H]1NC(=O)[C@H](Cc2c[nH]c3c(C)cccc23)NC(=O)[C@H]([C@@H](C)O)NC(=O)[C@H](CC(=O)N(C)C)NC(=O)[C@@H](NC(=O)CCOCCOCC[N+](C)(C)C)C(C)(C)SSC(C)(C)[C@@H](C(=O)N[C@@H](Cc2ccc(CCCCCC[N+](C)(C)CCOCCOCCNC(=O)COCCOCCNC(=O)CC[C@H](NC(=O)CCCCCCCCCCCCCCCCC(=O)O)C(=O)O)cc2)C(=O)N[C@@H](Cc2ccc3ccccc3c2)C(=O)NC2(C(=O)N[C@@H](CC(N)=O)C(=O)N[C@@H](Cc3cccnc3)C(=O)N(C)CC(=O)N(C)C)CCOCC2)NC1=O` [compound 143, cPEG3aCO-Pen(3)-N(N(Me)2)-T-7MeW-K(NMeAc)-Pen(3)-TMAPF(PEG2PEG2gEC18OH)-2Nal-THP-N-3Pya-Sar-CON(Me)2] ({Me3N+(CH2)2O(CH2)2O(CH2)2CO}-[Pen]D(NMe2)T[Trp(7-Me)][Lys(Me)](Ac)[Pen][X4]([AEEA-γGlu-C18 diacid])[2Nal][Thp]N[3Pal][Sar]-NMe2; disulfide 1-6): no less than 0.5 µM and no less than 0.005 µM.
In the same order, the values of `CC(=O)N(C)CCCC[C@@H]1NC(=O)[C@H](Cc2c[nH]c3c(C)cccc23)NC(=O)[C@H]([C@@H](C)O)NC(=O)[C@H](CC(=O)N(C)C)NC(=O)[C@@H](NC(=O)CCOCCOCC[N+](C)(C)C)C(C)(C)SSC(C)(C)[C@@H](C(=O)N[C@@H](Cc2ccc(OCCCCC[N+](C)(C)CCOCCOCCNC(=O)COCCOCCCC(=O)CC[C@H](CC(=O)CCCCCCCCCCCCCCCCC(=O)O)C(=O)O)cc2)C(=O)N[C@@H](Cc2ccc3ccccc3c2)C(=O)NC2(C(=O)N[C@@H](CCCCN(C)C(C)=O)C(=O)N[C@@H](CC(N)=O)C(=O)N[C@@H](Cc3cccnc3)C(=O)N(C)CC(=O)N(C)C)CCOCC2)NC1=O` [compound 144, cPEG3aCO-Pen(3)-N(N(Me)2)-T-7MeW-K(NMeAc)-Pen(3)-TMAPF(PEG2PEG2gEC18OH)-2Nal-THP-K(NMeAc)-N-3Pya-Sar-CON(Me)2] ({Me3N+(CH2)2O(CH2)2O(CH2)2CO}-[Pen]D(NMe2)T[Trp(7-Me)][Lys(Me)](Ac)[Pen]Y(X41)[2Nal][Thp][Lys(Me)](Ac)N[3Pal][Sar]-NMe2; disulfide 1-6) are less than 0.05 µM and 0.0005 to 0.005 µM.
The matching figures for `CC(=O)N(C)CCCC[C@@H]1NC(=O)[C@H](Cc2c[nH]c3c(C)cccc23)NC(=O)[C@H]([C@@H](C)O)NC(=O)[C@H](CC(=O)N(C)C)NC(=O)[C@@H](NC(=O)CCOCCOCC[N+](C)(C)C)C(C)(C)SSC(C)(C)[C@@H](C(=O)N[C@@H](Cc2ccc(OCCCCC[N+](C)(C)C)cc2)C(=O)N[C@@H](Cc2ccc3ccccc3c2)C(=O)NC2(C(=O)N[C@@H](CCCCN(C)C(C)=O)C(=O)N[C@@H](CC(N)=O)C(=O)N[C@@H](Cc3cccnc3)C(=O)N(C)CC(=O)NCCOCCOCCNC(=O)COCCOCCNC(=O)CC[C@H](CC(=O)CCCCCCCCCCCCCCCCC(=O)O)C(=O)O)CCOCC2)NC1=O` [compound 145, cPEG3aCO-Pen(3)-N(N(Me)2)-T-7MeW-K(NMeAc)-Pen(3)-TMAPF-2Nal-THP-K(NMeAc)-N-3Pya-Sar-CO(PEG2PEG2gEC18OH)] ({Me3N+(CH2)2O(CH2)2O(CH2)2CO}-[Pen]D(NMe2)T[Trp(7-Me)][Lys(Me)](Ac)[Pen]Y(X1)[2Nal][Thp][Lys(Me)](Ac)N[3Pal][Sar]-X34; disulfide 1-6): 0.05 to 0.5 µM and no less than 0.005 µM.
